Assay: xn = mol fraction of the nth substance listed
Settings: Liquid; for mass density: 293.15 K, Vibrating tube method; for viscosity: Concentric cylinders viscometry

Cc1ccc(C)c(C)c1 [1,2,4-trimethylbenzene] + CCC(C)O
mass density [kg/m3]
Settings | x2 = 0 | x2 = 0.1 | x2 = 0.1989 | x2 = 0.3011 | x2 = 0.4002 | x2 = 0.5001 | x2 = 0.5997 | x2 = 0.6999 | x2 = 0.7999 | x2 = 0.9
100 kPa | – | – | 863.6 | 857.4 | 851.4 | 845 | 838.2 | 831.1 | 823.6 | 815.3
1000 kPa | 875.7 | 869.9 | 864.2 | 858 | 852 | 845.6 | 838.9 | 831.8 | 824.3 | 816
2000 kPa | 876.3 | 870.6 | 864.9 | 858.8 | 852.8 | 846.4 | 839.7 | 832.6 | 825 | 816.8
5000 kPa | 878.2 | 872.7 | 867 | 860.9 | 854.9 | 848.5 | 841.9 | 834.8 | 827.3 | 819.1
10000 kPa | 881.4 | 875.9 | 870.3 | 864.2 | 858.3 | 852 | 845.4 | 838.3 | 830.9 | 822.7
15000 kPa | 884.4 | 879 | 873.4 | 867.5 | 861.6 | 855.3 | 848.7 | 841.7 | 834.3 | 826.1
20000 kPa | 887.3 | 882.1 | 876.5 | 870.6 | 864.7 | 858.5 | 851.9 | 845 | 837.6 | 829.5
30000 kPa | 892.9 | 887.9 | 882.4 | 876.6 | 870.8 | 864.6 | 858.1 | 851.2 | 843.9 | 835.8
40000 kPa | 898.2 | 893.4 | 888 | 882.2 | 876.5 | 870.4 | 863.9 | 857 | 849.7 | 841.7
50000 kPa | 903.2 | 898.6 | 893.2 | 887.5 | 881.8 | 875.7 | 869.3 | 862.5 | 855.2 | 847.2
60000 kPa | 908 | 903.6 | 898.3 | 892.5 | 886.9 | 880.9 | 874.4 | 867.7 | 860.4 | 852.5
70000 kPa | 912.6 | 908.3 | 903 | 897.3 | 891.8 | 885.8 | 879.4 | 872.7 | 865.5 | 857.5
80000 kPa | 916.9 | 912.9 | 907.6 | 902 | 896.4 | 890.4 | 884 | 877.3 | 870.1 | 862.3
90000 kPa | 921.1 | 917.2 | 912 | 906.4 | 900.9 | 894.9 | 888.6 | 881.9 | 874.8 | 866.8
100000 kPa | 925.1 | 921.4 | 916.2 | 910.6 | 905.1 | 899.2 | 892.9 | 886.2 | 879 | 871.2
110000 kPa | 929 | 925.4 | 920.3 | 914.8 | 909.2 | 903.4 | 897.1 | 890.4 | 883.3 | 875.4
120000 kPa | 932.8 | 929.3 | 924.2 | 918.7 | 913.2 | 907.4 | 901.2 | 894.4 | 887.3 | 879.5
130000 kPa | 936.4 | 933.1 | 928 | 922.6 | 917.1 | 911.3 | 905.1 | 898.4 | 891.2 | 883.4
140000 kPa | 939.9 | 936.7 | 931.6 | 926 | 920.5 | 914.9 | 908.7 | 901.9 | 894.7 | 887

viscosity [mPa·s], 100 kPa
Settings | x2 = 0 | x2 = 0.1001 | x2 = 0.2261 | x2 = 0.3 | x2 = 0.3966 | x2 = 0.5298 | x2 = 0.6001 | x2 = 0.7001 | x2 = 0.7997 | x2 = 0.9001
303.15 K | 0.779 | 0.774 | 0.786 | 0.802 | 0.858 | 0.923 | 1.01 | 1.16 | 1.4 | 1.8
313.15 K | 0.692 | 0.687 | 0.689 | 0.698 | 0.74 | – | – | – | – | –

Reference: the NIST ThermoML archive (doi:10.1016/j.jct.2017.03.006)
